Data as given in paper PMC3884839, “Pharmacokinetics and pharmacodynamics utilizing unbound target tissue exposure as part of a disposition-based rationale for lead optimization of benzoxaboroles in the treatment of Stage 2 Human African Trypanosomiasis” (Parasitology, 2013).
Converted amounts (≈) assume the structure as drawn.

Assays:
[1] = tested on: MDCKII-hMDR1 monolayer (Pgp efflux transporter); assay: MDCKII-hMDR1 monolayer permeability and Pgp-mediated efflux; format: in vitro ADME
Description: The propensity of test compounds to cross the BBB was examined using an in vitro MDCKII-hMDR1 monolayer assay (Polli et al. [2001]). In summary, MDCKII-hMDR1 cells (Netherlands Cancer Institute, Amsterdam, the Netherlands) were seeded at a density of 3×10^5 cells per well onto microporous polycarbonate membranes in 12 well Costar Transwell plates (Corning Inc., Lowell, MA). The cells were incubated for 3 days during which time they formed confluent monolayers. Trans-epithelial resistance (TEER) was measured for each insert to ensure the integrity of the monolayer (acceptable TEER >160 Ω cm^2). The permeability and susceptibility for Pgp-mediated efflux was evaluated by adding each compound at a concentration of 3 μM, in the presence or absence of 2 μM GF120918 (a potent Pgp inhibitor), to the apical compartment. Competency of the Pgp efflux transporter was confirmed by assay of propranolol (non-substrate) and amprenavir (substrate). Cell monolayers were incubated in triplicate with shaking (160 rpm) at 37 °C in a 5% CO2-enriched humidified atmosphere for 1 h. Samples were removed from the apical and basolateral compartments after incubation and assayed for test compound concentrations by LC-MSMS. Values for mass balance, PappA−B, PappA−B+GF918, and absorption quotient (AQ) were calculated for each compound (Troutman and Thakker, [2003]; Thiel-Demby et al. [2004]). Acceptance criterion for mass balance was 70–120%.

[2] = Single oral dose pharmacokinetics and CNS penetration in male CD-1 mice; format: in vivo, mouse
Description: The CNS disposition and pharmacokinetics of the benzoxaboroles were evaluated in infected and uninfected mice following oral administration. In vivo phases of single-dose rodent PK studies were performed at Vivisource (Waltham, MA) following Institutional Animal Care and Use Committee (IACUC) review in an Association for Assessment and Accreditation of Laboratory Animal Care International (AAALAC)-approved facility. Studies in Trypanosoma brucei brucei (TREU 667 strain) infected mice, or uninfected satellite animals, were performed after IACUC review at Pace University (NewYork, NY).
Male CD-1 or female Swiss Webster mice (approximately 25 g) were administered test compounds by oral gavage either once (QD) or twice per day (Q12 h) with doses ranging between 6 and 100 mg kg^−1 as described below. All compounds were formulated as an in situ sodium salt in 2% (v/v) ethanol, 5% (m/v) dextrose, to yield typically clear colourless solutions that were administered at 4 mL kg^−1. Blood samples for pharmacokinetic studies were collected into polypropylene tubes containing K2EDTA anticoagulant and stored on wet ice until centrifuged and processed to plasma. Plasma was stored at −80 °C. Blood samples from mice were collected via cardiac puncture under terminal anaesthesia. Rodents were euthanized in a CO2 chamber before collection of terminal blood or tissue samples. Brain tissues were blotted dry and stored at approximately −80 °C.
Plasma (50 μL) was treated with 4 volumes of ice-cold methanol (containing 25 ng mL^−1 of either deuterium (d6)-labelled SCYX-7158 internal standard (SCYX-5232) for SCYX-7158 analyses or a related benzoxaborole for other compounds) to precipitate proteins. Treated samples were gently mixed on a 96-well plate shaker for approximately 10 min then centrifuged at approximately 3000 g and 15 °C for 15 min. Supernatants were transferred to fresh 96-well plates for analysis by means of LC-MSMS. Samples of tissue homogenate (50 μL), or buffer from protein binding studies, were treated similarly to plasma samples.
All biological samples were assayed by a verified LC-MSMS method employing two dimensional chromatographic separation to overcome ion suppression (Annesely, [2003]) caused by co-elution of endogenous components with benzoxaboroles. In summary, treated samples were loaded onto Phenomenex (Torrance, CA) Synergi Polar RP, 4 μ, 50×2 mm extraction columns and subsequently back-eluted onto a Phenomenex Luna C8(2) 3 μ, 50×2 mm analytical columns protected by a Phenomenex C8 guard cartridge. Mobile phases for extraction and analytical columns consisted of 5 mM ammonium formate and 0·1% (v/v) formic acid in water (A), and 5 mM ammonium formate and 0·1% (v/v) formic acid in methanol (B). […]

L929 mammalian cell line = assay: L929 mammalian cell cytotoxicity / selectivity; format: cell-based

- P-gp classification [1]: Non-substrate
- Mass balance A–B+GF918 ([1]; 3 μM, with GF918): 75%
- Mass balance A–B ([1]; 3 μM, without GF918): 79%
- time CNS (brain) total concentration above MIC [2]: ~20 h
Structure (SMILES): CC1(C)OB(O)c2cc(NC(=O)c3ccc(F)cc3C(F)(F)F)ccc21 [SCYX-7158]
- IC50 (L929 mammalian cell line; Mus musculus, L929 mammalian cell line, cytotoxicity): 50 µg/mL (≈ 136 µM)
- Selectivity (L929 mammalian cell line; parasite vs L929): ⩾138
